Here are results for two compounds from US20240238228A1, “COMPOSITIONS AND METHODS FOR TREATING ALLERGIES AND INFLAMMATORY CONDITIONS” (UNIVERSITY OF PITTSBURGH-OF THE COMMONWEALTH SYSTEM OF …, priority 2021, published 2024).

Where two headings read alike, the source gives them in different places.

The test system of one test is inflammasome. The note with it: cited from earlier work.
In test [1] the test system is passive cutaneous anaphylaxis (PCA). The test can be described thus: Passive cutaneous anaphylaxis (PCA) in mice. Type of test: in vivo, mouse. The note with it: glyburide 2.5 mg/kg i.p. 3 h prior to PCA induction.
Another test relates to peanut allergy. The test can be described thus: Peanut allergy desensitization by microneedle arrays. Type of test: in vivo, mouse. As to conditions: delivered with peanut antigen by microneedle arrays to sensitized mice.
The next test relates to calpain. Description: Calpain activity in cell-free supernatants of activated PMCs. Type of test: cell-based, murine. The note with it: IgE+Ag with or without NKA for 60 min. Here is the method:
Calpain activity was detected from cell-free supernatants using the Calpain-Glo Protease Assay (Promega). Supernatants were incubated with substrate for 10 min prior to luminescent detection. In some experiments, glyburide or vehicle (0.1% DMSO) were added to cells 10 min prior to Ag. ELISA kits from eBioscience (IL-13), BioLegend, (TNF and IL-10) or RayBiotech (NKA) and used in accord with the manufacturer's recommendations.

A further test relates to BMMCs. The test can be described thus: MS/MS shotgun proteomics on BMMC releasate. The class given is cell-based, murine. As to the method:
BMMCs (4×10^6) were activated in Tyrode's Buffer without BSA (500 μl) for 1 hour. Protease Inhibitor Cocktail (Sigma, containing aprotinin, bestatin, E-64, leupeptin and pepstatin A) was added to cell free supernatants. Supernatants were concentrated using Amicon Ultra Centrifugal Filters-3K (EID Millipore). Protein concentrations were quantified with the BCA Protein Assay Kit (ThermoFisher). Tryptic peptides were generated with the filter-aided sample preparation method, desalted with C18 spin columns and dried in aspeedvac. Peptides were reconstituted in 0.5% formic acid in 96:4 water:acetonitrile and resolved with liquid chromatography tandem mass spectrometry with a system composed of a Waters nanoACQUITY UPLC in-line with a Q-Exactive mass spectrometer (ThermoFisher). Solvent A (0.1% formic acid in water, Burdick & Jackson) and solvent B (0.1% formic acid in acetonitrile, Burdick & Jackson) were used as the mobile phase. Peptides were then eluted from a capillary column (100 μm inner diameter×100 mm long; ACQUITY UPLC M-Class Peptide BEH C18 Column, 1.7-μm particle size, 300 Å (Waters), and resolved using a 100-min gradient at a flow rate of 0.9 μL/min (4-33% B for 90 min, 33-80% B for 2 min, constant at 80% B for 6 min, and then 80-0% B for 2 min to equilibrate the column). Data were collected in positive ionization mode. PEAKSX software was used to sequence and identify peptides in each sample using a decoy search at a 1.0% false discovery rate using the UniProt murine database. Label-free quantitation was performed using the quantitative module in the PEAKSX software. The MS proteomics data have been deposited to the ProteomeXchange Consortium via the PRIDE partner repository with the dataset identifier PXD021377. Pathway analysis for expressed proteins was done using the Panther Classification System.

Test [2] has as its system allergic contact hypersensitivity (CHS). As to conditions: NKA administration, cited from earlier work.
For another test, the system named is ABCA1. The test can be described thus: Surface ABCA1 expression on activated PMCs (flow cytometry). Type of test: cell-based, murine. As to conditions: 30 minutes after IgE-initiated activation; NKA 1000 nM. As to the method: MCs were collected and washed with PBS containing 0.5% BSA and 0.1% sodium azide. Non-specific binding was inhibited using FcBlock (PBS with 2.0% goat serum and 0.25 mg/mL anti-CD16/32 (clone 2.4G2, BD Biosciences). Surface staining was done with anti-CD117 eFluor450 (clone 2B8, ThermoFisher), anti-FcεRI FITC (clone MAR-1, ThermoFisher) and anti-ABCA1 Alexa Fluor 647 (clone 5A1-1422, BioRad). Cells were washed with Wash Buffer (PBS with 0.5% BSA and 0.1% sodium azide). To detect differences in granulated proteins at the cell surface, IgE-loaded MCs were activated with DNP-HSA with or without NKA in Tyrode's Buffer for 30 min, washed with Wash Buffer then stained with Avidin Alexa Fluor488 (Invitrogen, Av488, 0.8 μg/5×10^5 cells) and anti-LAMP-1 PE (clone eBio 1D48, ThermoFisher). Data were acquired on either a LSRII or a Fortessa (BD BioSciences). Analysis was performed with FlowJo v10.4 (BD Biosciences).
Background: A flow cytometer gives signals particle by particle.

For another test, the system named is IL10 mRNA. The test can be described thus: IL10 mRNA in ear skin 3 h after NKA injection. Type of test: in vivo, mouse. Here is the method: Total RNA was isolated from either MCs or murine ear tissue 3 h hours after NKA injection. Tissue was homogenized in Navy RINO tubes (Next Advance) in a Bullet Blender Storm (Next Advance). RNA was extracted per standard methods with Trizol (Invitrogen). cDNA was reversed transcribed with the Quantitech Reverse Transcription Kit (Qiagen). PCR products were amplified with Fast SybrGreen (ABI) on a StepOne Plus Cycler ([…]) using the following primers: TNF […] NO: 5), TNF […] NO: 6); IL13 […] NO: 7), IL13 […] NO: 8); IL10 […] NO: 9); IL10 […] NO: 10); Bactin […] NO: 11); Bactin […] NO: 12). Data are presented as 2^-ΔΔCT using f-actin as the housekeeping gene and normalizing to either untreated cells or naïve control mice.

In test [3] the test system is mucosal MCs from the lung. The note with it: cited from earlier work.
The test system of the next test is MCs. As to conditions: previous studies; cited from earlier work.

Take `COc1ccc(Cl)cc1C(=O)NCCc1ccc(S(=O)(=O)NC(=O)NC2CCCCC2)cc1` [glyburide, reference compound]: the inflammasome result with inflammasome is given as “inhibits”. The “ear thickness at 2 h” value in [1] is recorded as “significantly reduced”. In addition, in test [1] (24 hours), the “levels of IL-13 in the skin” value is given as “diminished” and the “levels of TNF in the skin” value was “diminished”. The “allergy to peanut allergen after CPE challenge” value in the test on peanut allergy is recorded as “desensitizes”.

With Neurokinin A [NKA], in the test with calpain, the “calpain activity in supernatants” value is given as “significantly diminished”. In the test on BMMCs, the “release of proteases β-hexosaminidase, MC carboxypeptidase, cathepsin D and chymase” value is “unchanged”; the “release of proteins associated with metabolism and cellular function pathways (pathway analysis)” value is reported as “inhibited”. In addition, the “number of proteins upregulated by NKA” value in the test with BMMCs (BMMCs activated 60 minutes) worked out at 94. Besides, the “catalytic subunit of calpain 1 in releasate” value with BMMCs (BMMCs activated in the presence of NKA) is given as “not detected”. Besides, the “allergic contact hypersensitivity (CHS) in the skin” value in test [2] is “blocks”. In addition, the “allergic contact hypersensitivity (CHS) in the skin” value in [2] (listed as Neurokinin A) was “inhibits inflammation”. The “ABCA1 detected on the cell surface” value in the test with ABCA1 is “reduced the level of ABCA1”. Also, the “IL10 mRNA in the skin” value in the test with IL10 mRNA (MC-deficient (Mcpt5Cre^+×Rosa26DTA^+) mice) is given as “no difference”. Also, the “IL10 mRNA levels in the skin” value in the test on IL10 mRNA (MC-sufficient (Mcpt5Cre^−×Rosa26DTA^+) mice) was “significantly increased”. Moreover, in [3], the histamine release entry is listed as “induces histamine release”. In addition, the “effect on MCs (β-hexosaminidase or histamine release as readouts)” value in the test on MCs is given as “no effect”.
